Patent publication US20110038940A1, “PULVERULENT COMPOSITION AND A PROCESS FOR PREPARING THE SAME” (INNOV'IA, priority 2008, published 2011)
Converted amounts (≈) assume the structure as drawn.

How the values were obtained:
[1] = Sedimentation of dispersed composition in water measured by turbidity (back scattering laser, Turbiscan MA 1000); type: physicochemical; conditions: 10 g in 90 ml distilled water at 20° C., bottom of tube
Experimental: 10 g of the water-dispersible pulverulent composition A is dispersed in 90 ml of distilled water at 20° C. in a tube. The sedimentation rate is measured by turbidity using a back scattering laser device (Turbiscan MA 1000) along the tube. The back light is measured along the tube at different time so that evolution of the sedimentation can be followed along time. The sedimentation is measured at the bottom of the tube.

[2] = Natural sedimentation in conical graduated tube, 15% dispersion in distilled water; sediment volume and dry solids; type: physicochemical; conditions: 15% (net w/total w) in distilled water at 20° C., 10 ml
Experimental: The water-dispersible pulverulent composition A is dispersed in distilled water at 20° C. at a concentration of 15% (net w/total w) in a conical graduated sedimentation tube (total volume of the solution is 10 ml). The quantity of the sediment (in ml) is measured along time (Table 3).
The encapsulation efficiency can also be assessed by measuring the hydration of the granules of the water-dispersible pulverulent composition of the invention. This has been evaluated by measuring the dry solid content of the sediment (% dry matter) (Table 3).

[3] = Sedimentation test (stability of the dispersion): sediment size and dry content after 24 hours; type: physicochemical; conditions: 1.5 g in 8.5 ml demineralised water, 2 min vortex; for Dry content of the sediment: sediment after 24 hours
Experimental: The stability is measured by the sedimentation test as follow: • 10 ml of solution is prepared using 8.5 ml of demineralised water and 1.5 g of the pulverulent composition A or B in special sedimentation tubes graduated from 0.1 ml up to 10 ml; • complete dispersion is assumed by a 2 min vortex mixing; • sedimentation is controlled at defined times to evaluate the amount of sediment; • quality of the dispersion is evaluated by measuring: • the dispersion of the solids all over the aqueous solution by measuring the height of the sediments of the hydrated particles. For the same amount of pulverulent composition, the higher the sediments, the more dispersed the particles in the aqueous solution • the dry content of the sediment after 24 hours.

[4] = water; cited from earlier work

% Back light after 2 min dispersion ([1]; 2 min): 2%
% Back light after 6 min dispersion ([1]; 6 min): 3.1%
Sediment volume after 1 Hour dispersion ([2]; 1 hour): 0.6 mL
Dry solids content of the sediment after 24 Hour sedimentation ([2]; 24 hours): 39.3%
Sediment after 24 H ([3]; 24 h): 1.5 mL
Dry content of the sediment ([3]; listed as Riboflavin (raw material)): 39.4%
Dry content of the sediment ([3]; listed as Riboflavin (raw material) (control)): 39.4%
Dry content of the sediment ([3]; listed as Riboflavine: Raw material (control)): 39.4%
Structure (SMILES): Cc1cc2nc3c(=O)[nH]c(=O)nc-3n(C[C@H](O)[C@H](O)[C@H](O)CO)c2cc1C [Riboflavin]
solubility [4]: 70 µg/mL (≈ 186 µM)
